Data published in patent US20230271954A1 (Gossamer Bio Services, Inc., priority 2020, published 2023).

Legend:
DGKα = DGKα (Homo sapiens, UniProt P23743); experiment: DGKα biochemical assay (ADP-Glo); conditions: read-out: DGK α IC50
Description: (§1) Compounds of the present invention were prepared into 10 mM DMSO solution and 10 nL of stock was transferred into 384 plates (Optiplate 384 plate) using Echo550. DMSO was used as high control, and ATP substrate buffer was used as a low control. A 1× enzyme assay buffer was prepared (Hepes, pH 7.0 25 mM, BSA 0.05%, Triton-X100 0.002%, CaCl2) 1 μM, MgCl2 10 mM, DTT 2 mM). […] OAG (1-oleoyl-2-acetyl-sn-glycerol, 25 mg/ml, Avanti 8001000) and PS (10 mg/ml, Avanti 840032P) were mixed at the ratio of 1:2. A 1× substrate solution was prepared with 1× assay buffer by 100-fold dilution. The substrate solution was sonicated on ice for 1 min. The pure ATP was added to the substrate solution (DGKα:400 μM). 5 μL of the enzyme solution were added to the 384 well plate, and the plate was spun for 1 min at 1000 rpm and incubated for 30 mins at RT. 5 μL of 1× substrate solution were added to the 384 well plate, the plate was spun and then incubated for 45 mins at RT. 10 μL ADP-Glo […] was added to stop the assay. After 60 mins at RT, 20 μL ADP-Glo Detection buffer was added as the final step. Plate was read after 45 min incubation at RT.
(§2) Data analysis was performed by calculating the […] using following the formula:
(§3) [formula] • High control (Hc): DMSO/DGKα(DGKζ)/Substrate/ATP/ADP-Glo • Low Control (Lc): ATP/ADP-Glo

DGKζ = molecular target: T1, DGKζ (Homo sapiens, UniProt Q13574); experiment: DGKζ biochemical assay (ADP-Glo); conditions: read-out: DGK ζ IC50
T1 construct: purchased Carna 12-110
Description: as §1, §2, §3

Chain of DGKα (P23743 whole entry): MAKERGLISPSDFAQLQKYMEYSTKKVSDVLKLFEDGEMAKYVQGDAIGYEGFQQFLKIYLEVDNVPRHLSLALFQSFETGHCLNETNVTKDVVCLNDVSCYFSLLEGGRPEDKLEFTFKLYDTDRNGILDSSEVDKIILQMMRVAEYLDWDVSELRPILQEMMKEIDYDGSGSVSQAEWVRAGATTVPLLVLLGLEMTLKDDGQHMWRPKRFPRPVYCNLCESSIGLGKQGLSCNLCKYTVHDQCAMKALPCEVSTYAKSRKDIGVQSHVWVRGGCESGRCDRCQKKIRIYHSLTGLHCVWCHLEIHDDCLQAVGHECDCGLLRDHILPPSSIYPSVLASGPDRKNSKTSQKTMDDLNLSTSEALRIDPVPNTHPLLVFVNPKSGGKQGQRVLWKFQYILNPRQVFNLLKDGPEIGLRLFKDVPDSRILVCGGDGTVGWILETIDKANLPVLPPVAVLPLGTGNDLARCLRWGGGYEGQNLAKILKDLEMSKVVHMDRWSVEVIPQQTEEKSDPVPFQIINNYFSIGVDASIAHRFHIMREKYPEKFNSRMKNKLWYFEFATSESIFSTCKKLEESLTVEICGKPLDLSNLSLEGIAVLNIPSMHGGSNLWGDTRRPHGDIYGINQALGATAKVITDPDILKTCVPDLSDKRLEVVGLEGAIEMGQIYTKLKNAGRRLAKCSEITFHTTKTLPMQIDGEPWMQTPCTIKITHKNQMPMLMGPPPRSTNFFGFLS
T1 sequence (Q13574 1-929 isoform Q13574-4): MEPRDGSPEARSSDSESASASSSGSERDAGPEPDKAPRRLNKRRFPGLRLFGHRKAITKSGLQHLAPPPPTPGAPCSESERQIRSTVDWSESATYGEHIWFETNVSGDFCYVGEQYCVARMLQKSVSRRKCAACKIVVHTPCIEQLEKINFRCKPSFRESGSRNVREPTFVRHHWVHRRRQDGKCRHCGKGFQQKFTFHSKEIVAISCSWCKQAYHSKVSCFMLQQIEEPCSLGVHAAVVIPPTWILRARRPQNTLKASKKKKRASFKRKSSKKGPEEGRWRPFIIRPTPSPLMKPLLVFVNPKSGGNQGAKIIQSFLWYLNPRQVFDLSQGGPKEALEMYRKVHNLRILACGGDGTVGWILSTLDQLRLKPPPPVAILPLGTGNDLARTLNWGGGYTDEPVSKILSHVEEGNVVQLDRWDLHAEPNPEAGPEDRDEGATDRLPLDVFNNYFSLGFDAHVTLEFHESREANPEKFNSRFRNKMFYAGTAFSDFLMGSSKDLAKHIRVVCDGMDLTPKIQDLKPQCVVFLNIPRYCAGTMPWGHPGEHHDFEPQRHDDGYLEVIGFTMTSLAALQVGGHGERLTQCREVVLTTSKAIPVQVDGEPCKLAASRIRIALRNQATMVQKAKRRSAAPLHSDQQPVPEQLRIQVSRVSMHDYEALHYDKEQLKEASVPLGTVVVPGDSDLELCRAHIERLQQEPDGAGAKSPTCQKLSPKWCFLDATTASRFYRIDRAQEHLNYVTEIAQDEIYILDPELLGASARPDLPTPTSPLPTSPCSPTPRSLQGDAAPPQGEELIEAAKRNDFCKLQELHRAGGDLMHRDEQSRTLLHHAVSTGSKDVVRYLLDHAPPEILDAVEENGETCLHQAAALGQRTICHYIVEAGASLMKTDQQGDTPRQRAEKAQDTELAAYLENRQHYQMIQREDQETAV

Compound `Cn1c(=O)c(C#N)c(N(C)[C@H]2CC[C@@H](N(CC3CCOC3)c3ccc(F)cc3)CC2)c2nc(C#N)ccc21` (relative stereo) [Example 55, cis-8-((4-((4-fluorophenyl)((tetrahydrofuran-3-yl)methyl)amino)cyclohexyl)(methyl)amino)-5-methyl-6-oxo-5,6-dihydro-1,5-naphthyridine-2,7-dicarbonitrile] has an IC50 (DGKα) of less than 0.01 µM and an IC50 (DGKζ) of 0.01 to 0.1 µM.
For `Cn1c(=O)c(C#N)c(N(C)[C@H]2CC[C@H](N(CC3CCOC3)c3ccc(F)cc3)CC2)c2nc(C#N)ccc21` (relative stereo) [Example 56, trans-8-((4-((4-fluorophenyl)((tetrahydrofuran-3-yl)methyl)amino)cyclohexyl)(methyl)amino)-5-methyl-6-oxo-5,6-dihydro-1,5-naphthyridine-2,7-dicarbonitrile], the IC50 (DGKα) was 0.01 to 0.1 µM and the IC50 (DGKζ) was no less than 1 µM.
`Cn1c(=O)c(C#N)c(N(C)[C@H]2CC[C@@H](N(CC3CCCOC3)c3ccc(F)cc3)CC2)c2nc(C#N)ccc21` (relative stereo) [Example 57, cis-8-((4-((4-fluorophenyl)((tetrahydro-2H-pyran-3-yl)methyl)amino)cyclohexyl)(methyl)amino)-5-methyl-6-oxo-5,6-dihydro-1,5-naphthyridine-2,7-dicarbonitrile] gave an IC50 (DGKα) of less than 0.01 µM and an IC50 (DGKζ) of 0.01 to 0.1 µM.
Compound `Cn1c(=O)c(C#N)c(N(C)[C@H]2CC[C@H](N(CC3CCCOC3)c3ccc(F)cc3)CC2)c2nc(C#N)ccc21` (relative stereo) [Example 58, trans-8-((4-((4-fluorophenyl)((tetrahydro-2H-pyran-3-yl)methyl)amino)cyclohexyl)(methyl)amino)-5-methyl-6-oxo-5,6-dihydro-1,5-naphthyridine-2,7-dicarbonitrile] has an IC50 (DGKα) of 0.1 to 1 µM and an IC50 (DGKζ) of no less than 1 µM.
`CN(c1cc(=O)n(C)c2ccc(C#N)nc12)C1CCC(N(CC2CCC2)c2ccc(CN3CCOCC3)cc2)CC1` (single isomer, unassigned) [Example 189, (cis or trans)-8-((4-((cyclobutylmethyl)(4-(morpholinomethyl)phenyl)amino)cyclohexyl) (methyl)amino)-5-methyl-6-oxo-5,6-dihydro-1,5-naphthyridine-2-carbonitrile] was tested, and the IC50 (DGKα) was no less than 1 µM and the IC50 (DGKζ) was no less than 1 µM.
`CN(c1c(C#N)c(=O)n(C)c2ccc(C#N)nc12)C1CCC(N(CC2CCC2)c2ccc(CN3CCOCC3)cc2)CC1` (single isomer, unassigned) [Example 190, (cis or trans)-8-((4-((cyclobutylmethyl)(4-(morpholinomethyl)phenyl)amino)cyclohexyl) (methyl)amino)-5-methyl-6-oxo-5,6-dihydro-1,5-naphthyridine-2,7-dicarbonitrile] was tested, and the IC50 (DGKα) was 0.01 to 0.1 µM and the IC50 (DGKζ) was no less than 1 µM.
Work on `CN(c1c(C#N)c(=O)n(C)c2ccc(Cl)nc12)C1CCC(N(CC2CCC2)c2ccc(CN3CCOCC3)cc2)CC1` (single isomer, unassigned) [Example 191, (cis or trans)-6-chloro-4-((4-((cyclobutylmethyl)(4-(morpholinomethyl)phenyl)amino)cyclohexyl) (methyl)amino)-1-methyl-2-oxo-1,2-dihydro-1,5-naphthyridine-3-carbonitrile] yielded an IC50 (DGKα) of 0.01 to 0.1 µM and an IC50 (DGKζ) of no less than 1 µM.
With `Cn1c(=O)cc(N(C)[C@H]2CC[C@@H](N(CC3COCCO3)c3cccc4c3OCO4)CC2)c2nc(C#N)ccc21` (single isomer, unassigned) [Example 195, cis-8-((-4-((((S or R)-1,4-dioxan-2-yl)methyl) (benzo[d][1,3]dioxol-4-yl)amino)cyclohexyl)(methyl)amino)-5-methyl-6-oxo-5,6-dihydro-1,5-naphthyridine-2-carbonitrile] the IC50 (DGKα) was 0.1 to 1 µM and the IC50 (DGKζ) was 0.1 to 1 µM.
Compound `Cn1c(=O)cc(N(C)[C@H]2CC[C@@H](N(CC3COCCO3)c3cccc4c3OCO4)CC2)c2nc(C#N)ccc21` (single isomer, unassigned) [Example 196, cis-8-((-4-((((R or S)-1,4-dioxan-2-yl)methyl) (benzo[d][1,3]dioxol-4-yl)amino)cyclohexyl)(methyl)amino)-5-methyl-6-oxo-5,6-dihydro-1,5-naphthyridine-2-carbonitrile] has an IC50 (DGKα) of no less than 1 µM and an IC50 (DGKζ) of 0.1 to 1 µM.
With `CN1CCN(Cc2ccc(N(CC3CC3)C3CCC(N(C)c4c(C#N)c(=O)n(C)c5ccc(C#N)nc45)CC3)cc2)CC1` (single isomer, unassigned) [Example 199, (cis or trans)-8-((4-((cyclopropylmethyl)(4-((4-methylpiperazin-1-yl)methyl)phenyl)amino)cyclohexyl)(methyl)amino)-5-methyl-6-oxo-5,6-dihydro-1,5-naphthyridine-2,7-dicarbonitrile] the IC50 (DGKα) was no less than 1 µM and the IC50 (DGKζ) was no less than 1 µM.
For `Cc1cc(F)ccc1N(CC1CCCO1)C1CCC(N(C)c2c(C#N)c(=O)n(C)c3ccc(C#N)nc23)CC1` (stereo in doubt) [Example 153, cis-8-((-4-((4-fluoro-2-methylphenyl) ((tetrahydrofuran-2-yl)methyl)amino)cyclohexyl) (methyl)amino)-5-methyl-6-oxo-5,6-dihydro-1,5-naphthyridine-2,7-dicarbonitrile], the IC50 (DGKα) was 0.1 to 1 µM and the IC50 (DGKζ) was 0.1 to 1 µM.
`Cn1c(=O)cc(N2CCC(N(CC3CC3)c3ccccc3O)CC2)c2nc(C#N)ccc21` [Example 1A, 8-(4-((Cyclopropylmethyl)(2-hydroxyphenyl)amino)piperidin-1-yl)-5-methyl-6-oxo-5,6-dihydro-1,5-naphthyridine-2-carbonitrile] showed an IC50 (DGKα) of 0.1 to 1 µM and an IC50 (DGKζ) of no less than 1 µM.
`Cn1c(=O)c([N+](=O)[O-])c(N2CCC(N(CC3CC3)c3ccccc3)CC2)c2nc(C#N)ccc21` [Example 1B, 8-(4-((Cyclopropylmethyl)(phenyl)amino)piperidin-1-yl)-5-methyl-7-nitro-6-oxo-5,6-dihydro-1,5-naphthyridine-2-carbonitrile] was tested, and the IC50 (DGKα) was 0.01 to 0.1 µM and the IC50 (DGKζ) was 0.1 to 1 µM.
`Cn1c(=O)c([N+](=O)[O-])c(N2CCC(N(CC3COC3)c3ccccc3)CC2)c2nc(C#N)ccc21` [Example 1C, 5-Methyl-7-nitro-8-(4-((oxetan-3-ylmethyl)(phenyl)amino)piperidin-1-yl)-6-oxo-5,6-dihydro-1,5-naphthyridine-2-carbonitrile] showed an IC50 (DGKα) of no less than 1 µM and an IC50 (DGKζ) of no less than 1 µM.
`Cn1c(=O)c([N+](=O)[O-])c(N2CCC(N(CC3(C)COC3)c3ccccc3)CC2)c2nc(C#N)ccc21` [Example 1D, 5-Methyl-8-(4-(((3-methyloxetan-3-yl)methyl)(phenyl)amino)piperidin-1-yl)-7-nitro-6-oxo-5,6-dihydro-1,5-naphthyridine-2-carbonitrile] showed an IC50 (DGKα) of 0.1 to 1 µM and an IC50 (DGKζ) of no less than 1 µM.
With `Cn1c(=O)c(C#N)c(N2CCC(N(CC3CC3)c3ccccc3O)CC2)c2nc(Cl)ccc21` [Example 1E, 6-Chloro-4-(4-((cyclopropylmethyl)(2-hydroxyphenyl)amino)piperidin-1-yl)-1-methyl-2-oxo-1,2-dihydro-1,5-naphthyridine-3-carbonitrile] the IC50 (DGKα) was 0.01 to 0.1 µM and the IC50 (DGKζ) was no less than 1 µM.
`Cc1ccc2c(c1)c(N1CCC(N(CC3CC3)c3ccccc3)CC1)cc1nncn12` [Example 1F, N-(Cyclopropylmethyl)-1-(7-methyl-[1,2,4]triazolo[4,3-a]quinolin-5-yl)-N-phenylpiperidin-4-amine] gave an IC50 (DGKα) of 0.01 to 0.1 µM and an IC50 (DGKζ) of no less than 1 µM.
`CN1C(=O)CN([C@H]2CC[C@H](N(CC3CC3)c3ccccc3)CC2)c2nc(C#N)ccc21` [Example 2A, trans-4-[4-[N-(Cyclopropylmethyl)anilino]cyclohexyl]-1-methyl-2-oxo-3H-pyrido[2,3-b]pyrazine-6-carbonitrile] showed an IC50 (DGKα) of 0.01 to 0.1 µM and an IC50 (DGKζ) of no less than 1 µM.
Compound `CN1C(=O)CN([C@H]2CC[C@H](N(c3ccccc3O)C3CC3)CC2)c2nc(C#N)ccc21` [Example 2B, 4-(trans-4-(Cyclopropyl(2-hydroxyphenyl)amino)cyclohexyl)-1-methyl-2-oxo-1,2,3,4-tetrahydropyrido[3,2-b]pyrazine-6-carbonitrile] has an IC50 (DGKα) of 0.1 to 1 µM and an IC50 (DGKζ) of no less than 1 µM.
Compound `CN1C(=O)CN([C@H]2CC[C@@H](N(CC3CC3)c3ccccc3)CC2)c2nc(C#N)ccc21` [Example 2C, cis-4-[4-[N-(Cyclopropylmethyl)anilino]cyclohexyl]-1-methyl-2-oxo-3H-pyrido[2,3-b]pyrazine-6-carbonitrile] has an IC50 (DGKα) of 0.1 to 1 µM and an IC50 (DGKζ) of no less than 1 µM.
With `Cn1c(=O)c(C#N)c(N[C@H]2CC[C@H](N(c3ccccc3)C3CC3)CC2)c2nc(Cl)ccc21` [Example 3A, trans-6-Chloro-4-((4-(cyclopropyl(phenyl)amino)cyclohexyl)amino)-1-methyl-2-oxo-1,2-dihydro-1,5-naphthyridine-3-carbonitrile] the IC50 (DGKα) was less than 0.01 µM and the IC50 (DGKζ) was no less than 1 µM.
Work on `Cn1c(=O)cc(N(C)[C@H]2CC[C@H](N(CC3CC3)c3ccc(F)cn3)CC2)c2nc(C#N)ccc21` [Example 3AA] yielded an IC50 (DGKα) of 0.1 to 1 µM and an IC50 (DGKζ) of no less than 1 µM.
Compound `Cn1c(=O)c(C#N)c(N[C@H]2CC[C@H](N(CC3CC3)c3ccccc3)CC2)c2nc(Cl)ccc21` [Example 3B, trans-6-Chloro-4-((4-((cyclopropylmethyl)(phenyl)amino)cyclohexyl)amino)-1-methyl-2-oxo-1,2-dihydro-1,5-naphthyridine-3-carbonitrile] has an IC50 (DGKα) of less than 0.01 µM and an IC50 (DGKζ) of no less than 1 µM.
